Reference: patent publication US11414414B2, “Pyrroloquinoline quinone glycine betaine salt” (SHANGHAI XUANCHUANG BIOLOGICAL TECHNOLOGY CO., LTD., priority 2016, dated 2022)

Tests used:
[1] = test system: CC14-induced acute liver injury model mice; assay: CC14-induced acute liver injury model: ALT, AST in serum, SOD, GSH-Px, MDA in liver homogenate; assay type: in vivo, Kunming mice; settings: for GSH-Px / MDA / SOD: liver homogenate, Mean ± SD; for GSH-Px / MDA / SOD / ALT / AST: 3 mg/kg by weight of PQQ, gavage once a day for 7 days; for ALT / AST: serum, 24 h after CC14, Mean ± SD
Protocol: Forty-eight male Kunming mice weighing 18-22 g were randomly divided into 4 groups: blank control group, CC14 model group, PQQ disodium salt group and PQQ betaine salt group, respectively, with 12 mice in each group.
On the 7th day after gavage for 1 h, the mice in CC14 model group, PQQ disodium salt group and PQQ betaine salt group were injected intraperitoneally with 0.25% CC14 peanut oil (10 mL/kg) once, resulting in acute liver injury models; while mice in the blank control group were injected intraperitoneally with peanut oil (10 mL/kg) once. Animals were sacrificed after orbital blood collection for 24 h. 0.5-1 mL blood was collected from the mouse orbit, serum was separated by static centrifugation, and ALT and AST levels in serum were measured by biochemical kits. Animals were sacrificed and livers were removed for preparing liver homogenate. Superoxide dismutase (SOD), glutathione peroxidase (GSH-Px) activity and malondialdehyde (MDA) content in liver homogenates were determined by biochemical kits.

[2] = test system: scopolamine-induced memory disordered model mice; assay: Morris water maze spatial probe test in scopolamine-induced memory disordered mice; assay type: in vivo, Kunming mice; settings: for Latent period of crossing the original platform / Number of time of crossing platform: fifth day, Mean ± SD
Protocol: (§1) Fifty Kunming mice, weighing 18-22 g, were randomly divided into five groups: blank control group, model group, low-dose PQQ betaine salt group (1.5 mg/kg), high-dose PQQ betaine salt group (3 mg/kg) and positive control group (donepezil, 3 mg/kg), respectively, 10 mice in each group. Wherein the PQQ betaine salt used is a crystalline Form A of pyrroloquinoline quinone betaine salt prepared according to the method of example 1.
(§2) The blank control group and the model group were administered with distilled water by gavage, the low-dose PQQ betaine salt group, the high-dose group and positive control group were administered with drugs by gavage respectively, once a day. Learning and memory training was carried out on the fifth day of administration and for 5 days in total; the model group, the low-dose PQQ betaine salt group, the high-dose group and the positive control group were intraperitoneally injected with 2 mg/kg of scopolamine 20 minutes earlier before training to obtain memory disordered models, while the blank control group was injected with a corresponding volume of saline. Morris water maze experiment were carried out for 5 days in total, wherein, a place navigation test was carried out in the first 4 days in order to observe and record the time required for the experimental animals to seek and climb onto the platform, in order to test the learning ability of mice. On the fifth day, a spatial probe test was carried out, during the test, the platform was removed, the time (the latent period) when crossing the original platform position for the first time was recorded as well as the number of time of traversing the original platform position for the animal, in order to test the spatial memory capacity of the animal. The latent period and the number of time of traversing platforms were used as evaluation indexes to detect the improvement of learning and memory in dementia model mice.

[3] = Standing at room temperature (hygroscopicity observation); assay type: physicochemical; settings: room temperature (25° C., about 50% humidity), a period of time
[4] = Dynamic moisture sorption (DVS) hygroscopicity; assay type: physicochemical; settings: warehouse environment (humidity of 45%)
[5] = test system: scopolamine-induced memory disordered model mice; assay: Morris water maze place navigation test in scopolamine-induced memory disordered mice; assay type: in vivo, Kunming mice; settings: for Latent period, the first day / Latent period, the fourth day / Latent period, the second day / Latent period, the third day: time to climb onto the platform, Mean ± SD
Protocol: as §1, §2

[6] = Illumination stability of the crystalline form (XRPD); settings: light intensity of 4500 lux, 5 and 10 days
Text: An appropriate amount of sample of the crystalline Form A of pyrroloquinoline quinone betaine salt was subjected to a light intensity of 4500 lux, and after 5 and 10 days the sample was removed for XPRD testing (as shown in FIGS. 6 and 7) to examine the crystalline stability of the sample under illumination.

[7] = High humidity stability of the crystalline form (XRPD); settings: humidity of 92.5%, 5 days and 10 days
Text: The appropriate amount of sample of the crystalline Form A of pyrroloquinoline quinone betaine salt is subjected to the humidity of 92.5%, and after 5 days and 10 days the samples were removed for XPRD testing (as shown in FIGS. 4 and 5) to examine the crystalline stability of the sample against humidity.

[8] = High temperature stability of the crystalline form (XRPD); settings: oven at 60° C., 5 days and 10 days
Protocol: An appropriate amount of sample of the crystalline Form A of Pyrroloquinoline Quinone Betaine Salt was placed in an oven at 60° C., and after 5 days and 10 days the sample was removed for XPRD testing (as shown in FIGS. 2 and 3) to examine the crystalline stability of the sample against temperature.

[9] = Solubility of saturated aqueous solution by UV absorbance at 450 nm
[10] = P<0.05 compared to the model group

O=C([O-])c1cc(C(=O)[O-])c2c(n1)C(=O)C(=O)c1cc(C(=O)O)[nH]c1-2.[Na+].[Na+] [Disodium salt of PQQ, reference compound]
GSH-Px [1]: 93.4 ± 10.1^ΔΔ kU/g pro | MDA [1]: 2.71 ± 0.37^Δ nmol/L | SOD [1]: 29.5 ± 4.9^Δ kU/g pro | ALT [1]: 126.5 ± 27.0^ΔΔ IU/L | AST [1]: 115.4 ± 22.7^Δ IU/L

COc1cc2c(cc1OC)C(=O)C(CC1CCN(Cc3ccccc3)CC1)C2 (centres unmarked) [Donepezil, donepezil, reference compound]
Latent period of crossing the original platform ([2]; 3 mg/kg): 16.41 ± 7.60^ΔΔ s | Number of time of crossing platform ([2]; 3 mg/kg): 2.90 ± 0.57^ΔΔ

C[N+](C)(C)CCO.C[N+](C)(C)CCO.C[N+](C)(C)CCO.O=C(O)c1cc(C(=O)O)c2c(n1)C(=O)C(=O)c1cc(C(=O)O)[nH]c1-2 [tricholine salt of PQQ]
appearance after standing (hygroscopicity) [3]: became a sticky solid

pyrroloquinoline quinone betaine salt [PQQ betaine salt]
moisture sorption [4]: 1.1% | effect on CC14-induced acute liver injury in mice ([1]; 3 mg/kg, gavage, 7 days, overall conclusion): significantly improved | GSH-Px [1]: 93.5 ± 9.0^ΔΔ kU/g pro | MDA [1]: 2.61 ± 0.37^ΔΔ nmol/L | SOD [1]: 31.1 ± 4.5^ΔΔ kU/g pro | ALT [1]: 110.1 ± 26.0^ΔΔ IU/L | AST [1]: 110.0 ± 20.4^ΔΔ IU/L | Latent period, the first day ([5]; 1.5 mg/kg gavage once a day): 74.30 ± 17.80 s | Latent period, the fourth day ([5]; 1.5 mg/kg gavage once a day): 50.80 ± 15.95 s | Latent period, the second day ([5]; 1.5 mg/kg gavage once a day): 62.90 ± 14.07 s | Latent period, the third day ([5]; 1.5 mg/kg gavage once a day): 51.90 ± 16.43 s | Latent period, the first day ([5]; 3 mg/kg gavage once a day): 74.70 ± 16.94 s | Latent period, the fourth day ([5]; 3 mg/kg gavage once a day): 29.50 ± 12.29^ΔΔ s | Latent period, the second day ([5]; 3 mg/kg gavage once a day): 62.30 ± 13.84 s | Latent period, the third day ([5]; 3 mg/kg gavage once a day): 38.20 ± 14.01^Δ s | latent period in place navigation compared with the model group ([5]; P<0.05 or P<0.01 compared with the model group): significantly shortened | Latent period of crossing the original platform ([2]; 1.5 mg/kg): 25.48 ± 12.19^ΔΔ s | Number of time of crossing platform ([2]; 1.5 mg/kg): 2.20 ± 0.42^Δ | Latent period of crossing the original platform ([2]; 3 mg/kg): 20.98 ± 9.44^ΔΔ s | Number of time of crossing platform ([2]; 3 mg/kg): 2.10 ± 0.57^Δ | latent period in spatial search compared to the model group [2, 10]: reduced | number of time of crossing platform compared to the model group [2, 10]: increased | crystalline stability under illumination [6]: stable | crystalline stability against humidity [7]: stable | crystalline stability against temperature [8]: stable | Relative ratio (solubility) [9]: 1.50 | Solubility ([9]; saturated aqueous solution at 30° C., solubility of pyrroloquinoline quinone): 14.50 mM
